Test results from ChEMBL document CHEMBL1201862, “PubChem BioAssay data set” (2004).
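Step 1: Grow cells in 96-well plates. Step 2: Expose to compound for 48 hours at 5 concentrations. Step 3: Interpolate endpoints linearly; if unreached, use highest concentration. GI50 is the concentration that inhibits growth by half.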 Calls of active or inactive are those of the source. Cut-off read from the data, not from the text of the source: active = GI50 up to about 1.1 µM and inactive = higher.

Legend:
Test in all cases: DTP human tumour cell line panel, 48 h
RXF 393 = system: RXF 393
TK-10 = system: TK-10
EKVX = system: EKVX
HT-29 = system: HT-29
SK-MEL-28 = system: SK-MEL-28
SK-MEL-2 = system: SK-MEL-2
COLO 205 = system: COLO 205
SF-268 = system: SF-268
OVCAR-8 = system: OVCAR-8
KM12 = system: KM12
NCI-H23 = system: NCI-H23
NCI-H460 = system: NCI-H460
OVCAR-4 = system: OVCAR-4
HCT-116 = system: HCT-116
CAKI-1 = system: CAKI-1
HL-60 = system: HL-60

Measured: GI50

CC1(C)CCCC2(C)C3C(O)CC2(C)C(O)C31 (stereo not given)
inactive: RXF 393 > 100 µM | TK-10 > 100 µM | EKVX > 100 µM | HT-29 > 100 µM | SK-MEL-28 > 100 µM | SK-MEL-2 > 100 µM | COLO 205 > 100 µM | SF-268 > 100 µM | OVCAR-8 > 100 µM | KM12 > 100 µM | NCI-H23 > 100 µM | NCI-H460 > 100 µM | OVCAR-4 > 100 µM | HCT-116 > 100 µM

N#C/C(=C/c1ccc2c(c1)OCO2)C(=O)c1ccccc1
inactive: TK-10 > 100 µM | EKVX > 100 µM | HT-29 > 100 µM | SK-MEL-28 > 100 µM | CAKI-1 > 100 µM | SK-MEL-2 > 100 µM | COLO 205 > 100 µM | SF-268 > 100 µM | OVCAR-8 > 100 µM | KM12 > 100 µM | NCI-H23 > 100 µM | NCI-H460 > 100 µM | OVCAR-4 > 100 µM | HCT-116 > 100 µM

COC(=O)C1CCCC2(C1)OCCO2 (stereo not given)
inactive: RXF 393 > 100 µM | TK-10 > 100 µM | EKVX > 100 µM | HT-29 > 100 µM | SK-MEL-28 > 100 µM | CAKI-1 > 100 µM | SK-MEL-2 > 100 µM | COLO 205 > 100 µM | SF-268 > 100 µM | OVCAR-8 > 100 µM | KM12 > 100 µM | NCI-H23 > 100 µM | NCI-H460 > 100 µM | OVCAR-4 > 100 µM | HCT-116 > 100 µM

Cc1ccc(S(=O)(=O)N/N=C(/CC(=O)c2c(C)[n+]([O-])c3ccccc3[n+]2[O-])C(=O)Nc2ccc(C)c(C)c2)cc1
inactive: RXF 393 > 100 µM | EKVX > 100 µM | HT-29 50.9 µM | SK-MEL-28 > 100 µM | CAKI-1 > 100 µM | SK-MEL-2 > 100 µM | COLO 205 34.7 µM | SF-268 > 100 µM | KM12 28.2 µM | NCI-H23 > 100 µM | NCI-H460 41.9 µM | OVCAR-4 33 µM | HCT-116 38.2 µM

O=C1c2ccccc2C2(O)N(c3ccccc3)C(=S)N(c3ccccc3)C12O (stereo not given)
inactive: RXF 393 > 100 µM | TK-10 > 100 µM | EKVX > 100 µM | HT-29 > 100 µM | SK-MEL-28 > 100 µM | CAKI-1 > 100 µM | SK-MEL-2 > 100 µM | COLO 205 > 100 µM | SF-268 > 100 µM | OVCAR-8 > 100 µM | KM12 > 100 µM | NCI-H23 > 100 µM | NCI-H460 > 100 µM | OVCAR-4 > 100 µM | HCT-116 > 100 µM

COC1CC(O)C(OC(=O)c2ccccc2)C(C)O1 (stereo not given)
inactive: TK-10 > 100 µM | HT-29 > 100 µM | SK-MEL-28 > 100 µM | HL-60 > 100 µM | CAKI-1 > 100 µM | COLO 205 > 100 µM | SF-268 > 100 µM | OVCAR-8 > 100 µM | KM12 > 100 µM | NCI-H23 > 100 µM | NCI-H460 > 100 µM | OVCAR-4 > 100 µM | HCT-116 > 100 µM

COc1ccc(-c2cc(=O)c3cc(C)c(C)c(C(=O)O)c3o2)cc1
inactive: RXF 393 > 100 µM | EKVX > 100 µM | HT-29 > 100 µM | SK-MEL-28 > 100 µM | HL-60 > 100 µM | CAKI-1 > 100 µM | SK-MEL-2 > 100 µM | COLO 205 > 100 µM | OVCAR-8 > 100 µM | KM12 > 100 µM | NCI-H23 > 100 µM | NCI-H460 > 100 µM | OVCAR-4 > 100 µM | HCT-116 > 100 µM

CC1(c2cccc(C3CC4(CCC3=O)OCCCCO4)c2)OCCO1 (stereo not given)
inactive: TK-10 > 100 µM | HT-29 > 100 µM | SK-MEL-28 > 100 µM | HL-60 > 100 µM | CAKI-1 > 100 µM | SK-MEL-2 > 100 µM | COLO 205 > 100 µM | SF-268 > 100 µM | OVCAR-8 > 100 µM | KM12 > 100 µM | NCI-H23 > 100 µM | NCI-H460 > 100 µM | OVCAR-4 > 100 µM | HCT-116 > 100 µM

O=C(NC1CC1)c1c(O)[nH]c(=S)[nH]c1=O
inactive: TK-10 > 100 µM | HT-29 > 100 µM | SK-MEL-28 > 100 µM | HL-60 > 100 µM | CAKI-1 > 100 µM | SK-MEL-2 > 100 µM | COLO 205 > 100 µM | SF-268 > 100 µM | OVCAR-8 > 100 µM | KM12 > 100 µM | NCI-H23 > 100 µM | NCI-H460 > 100 µM | OVCAR-4 > 100 µM | HCT-116 > 100 µM

O=C(N/N=C/c1cccc(F)c1)c1ccncc1
inactive: RXF 393 > 100 µM | TK-10 > 100 µM | HT-29 > 100 µM | SK-MEL-28 > 100 µM | HL-60 > 100 µM | CAKI-1 > 10 µM | SK-MEL-2 > 100 µM | COLO 205 > 100 µM | SF-268 > 100 µM | KM12 > 100 µM | NCI-H23 > 100 µM | NCI-H460 > 100 µM | OVCAR-4 > 10 µM | HCT-116 > 100 µM
